Assay results as given in the Kinase Knowledgebase extract (Sharma et al. 2016).

Biological target: PIK3CA (human) (UniProt P42336)
Experiment: Assessment of PIK3CA Kinase Activity

Chain of PIK3CA (human) (P42336 whole entry, looked up): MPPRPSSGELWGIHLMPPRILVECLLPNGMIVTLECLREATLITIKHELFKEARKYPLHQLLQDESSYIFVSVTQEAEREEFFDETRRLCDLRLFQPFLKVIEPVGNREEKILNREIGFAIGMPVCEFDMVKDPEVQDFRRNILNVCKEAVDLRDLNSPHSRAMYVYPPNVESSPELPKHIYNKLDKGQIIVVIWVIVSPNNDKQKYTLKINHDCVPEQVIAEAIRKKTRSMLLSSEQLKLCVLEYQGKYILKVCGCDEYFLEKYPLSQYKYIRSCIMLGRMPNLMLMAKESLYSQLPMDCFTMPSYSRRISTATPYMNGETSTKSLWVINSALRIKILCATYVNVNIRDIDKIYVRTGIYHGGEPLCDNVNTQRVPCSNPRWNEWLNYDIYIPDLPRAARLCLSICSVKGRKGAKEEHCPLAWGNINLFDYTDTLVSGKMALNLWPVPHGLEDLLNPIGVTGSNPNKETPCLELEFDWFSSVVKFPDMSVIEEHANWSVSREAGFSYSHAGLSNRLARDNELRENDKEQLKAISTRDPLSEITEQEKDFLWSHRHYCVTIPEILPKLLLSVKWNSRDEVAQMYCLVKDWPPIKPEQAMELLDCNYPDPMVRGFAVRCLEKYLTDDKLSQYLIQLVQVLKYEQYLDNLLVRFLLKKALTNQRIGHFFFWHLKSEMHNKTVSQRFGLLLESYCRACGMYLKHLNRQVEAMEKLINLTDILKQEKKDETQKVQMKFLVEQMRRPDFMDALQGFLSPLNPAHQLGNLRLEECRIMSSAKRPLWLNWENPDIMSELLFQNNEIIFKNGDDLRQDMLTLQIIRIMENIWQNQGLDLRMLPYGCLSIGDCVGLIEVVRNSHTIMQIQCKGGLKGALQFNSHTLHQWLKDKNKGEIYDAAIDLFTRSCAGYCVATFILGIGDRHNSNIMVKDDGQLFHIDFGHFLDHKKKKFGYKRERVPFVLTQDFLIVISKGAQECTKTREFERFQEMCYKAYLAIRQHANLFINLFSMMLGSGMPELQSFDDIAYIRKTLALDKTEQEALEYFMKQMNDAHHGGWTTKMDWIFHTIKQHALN

| SMILES | IC50 |
| --- | --- |
| Cc1cc(-c2cnc(Cl)c(NS(C)(=O)=O)c2)cc2c1OCCN(c1nc(C(=O)NCCN(C)C)nc(C)c1C(C)C)C2 | ≤ 100 nM |
| COCc1nc(C)c(C(C)C)c(N2CCOc3c(C)cc(-c4cnc5sc(N)nc5c4)cc3C2)n1 | ≤ 100 nM |
| C=C(C)c1c(C)ncnc1N1CCOc2c(C)cc(-c3cnc4sc(N)nc4c3)cc2C1 | ≤ 100 nM |
| Cc1cc(-c2ccncc2)cc2c1OCCN(c1nc(N)nc(C)c1C(C)C)C2 | ≤ 100 nM |
| Cc1cc(-c2nnc(N)s2)cc2c1OCCN(c1nc(N)nc(C)c1C(C)C)C2 | ≤ 100 nM |
| Cc1cc(-c2cnc3sc(N)nc3c2)cc2c1OCCN(c1nc(S(C)(=O)=O)nc(C)c1C(C)C)C2 | ≤ 100 nM |
| Cc1nc(N)nc(N2CCOc3ccc(-c4cnc5sc(N)nc5c4)cc3C2)c1C(C)C | ≤ 100 nM |
| COCCc1c(C)nc(N)nc1N1CCOc2c(C)cc(-c3cnc4sc(N)nc4c3)cc2C1 | ≤ 100 nM |
| C#Cc1c(C)nc(N)nc1N1CCOc2c(C)cc(-c3cnc4sc(N)nc4c3)cc2C1 | ≤ 100 nM |
| CNc1nc(-c2cc(C)c3c(c2)CN(c2nc(N)nc(C)c2C(C)C)CCO3)cs1 | 100 to 500 nM |
| Cc1cc(-c2cnc3sc(N)nc3c2)cc2c1OCCN(c1nc(CN(C)C(C)(C)C)nc(C)c1C(C)C)C2 | ≤ 100 nM |
| Cc1nc2ccc(-c3cc(C)c4c(c3)CN(c3ncnc5ccc(I)cc35)CCO4)cc2[nH]1 | ≤ 100 nM |
| Cc1nc2c(c(N3CCOc4c(C)cc(-c5cnc6sc(N)nc6c5)cc4C3)n1)CC(C)(C)CC2 | ≤ 100 nM |
| Cc1cc(-c2cnc3sc(N)nc3c2)cc2c1OCCN(c1ncc(C#N)c(N)n1)C2 | ≤ 100 nM |
| C=Cc1c(Cl)nc(N)nc1N1CCOc2c(C)cc(-c3cnc4sc(N)nc4c3)cc2C1 | ≤ 100 nM |
| CCc1c(Cl)nc(CN(C)C)nc1N1CCOc2c(C)cc(-c3cnc4sc(N)nc4c3)cc2C1 | ≤ 100 nM |
| COc1cncc(-c2cc(C)c3c(c2)CN(c2nc(N)nc(C)c2C(C)C)CCO3)c1 | ≤ 100 nM |

| SMILES | IC50 |
| --- | --- |
| COC(C)c1c(C)nc(C)nc1N1CCOc2c(C)cc(-c3cnc4sc(N)nc4c3)cc2C1 (stereo not drawn) | ≤ 100 nM |
| Cc1cc(-c2cnc3sc(N)nc3c2)cc2c1OCCN(c1nc(N)c(C#N)c(C)c1C#N)C2 | ≤ 100 nM |
| Cc1ncc(C(C)C)c(N2CCOc3c(C)cc(-c4nnc(N)s4)cc3C2)n1 | ≤ 100 nM |
| Cc1nc(C)c(C(C)C)c(N2CCOc3c(C)cc(-c4nnc(N)s4)cc3C2)n1 | ≤ 100 nM |
| Cc1cc(-c2cnc3sc(N)nc3c2)cc2c1OCCN(c1ncncc1C(C)C)C2 | ≤ 100 nM |
| COc1ccc(-c2cc(C)c3c(c2)CN(c2nc(N)nc(C)c2C(C)C)CCO3)cc1OC | ≤ 100 nM |
| CCc1c(C)nc(CN(C)C)nc1N1CCOc2c(C)cc(-c3cnc4sc(N)nc4c3)cc2C1 | ≤ 100 nM |
| Cc1cc(-c2cnc3sc(N)nc3c2)cc2c1OCCN(c1nc(N3CCN(C)CC3)nc(C)c1C(C)C)C2 | ≤ 100 nM |
| Cc1cc(-c2cnc3sc(N)nc3c2)cc2c1OCCN(c1ncnc3c1CC[C@H](C)C3)C2 | ≤ 100 nM |
| Cc1cc(-c2cnc3sc(N)nc3c2)cc2c1OCCN(c1ncnc(Cl)c1C(C)(C)O)C2 | 100 to 500 nM |
| Cc1cc(-c2cnc3sc(N)nc3c2)cc2c1OCCN(c1ccc(C#N)cn1)C2 | 100 to 500 nM |
| Cc1ncc(C(C)C)c(N2CCOc3c(C)cc(-c4cnc5sc(N)nc5c4)cc3C2)n1 | ≤ 100 nM |
| Cc1cc(-c2cccc(C(N)=O)c2)cc2c1OCCN(c1nc(N)nc(C)c1C(C)C)C2 | 100 to 500 nM |
| Cc1cc(-c2cnc3nc[nH]c3c2)cc2c1OCCN(c1nc(N)nc(C)c1C(C)C)C2 | ≤ 100 nM |
| Cc1cc(-c2cnc3sc(N)nc3c2)cc2c1OCCN(c1ncccc1C(N)=O)C2 | 100 to 500 nM |
| Cc1cc(-c2nnc(N)s2)cc2c1OCCN(c1nc(N)ncc1C(C)C)C2 | ≤ 100 nM |

Other lines, results leading:

| IC50 | SMILES |
| --- | --- |
| ≤ 100 nM | Cc1cc(-c2cccc(O)c2)cc2c1OCCN(c1nc(N)nc(C)c1C(C)C)C2 |
| ≤ 100 nM | Cc1cc(-c2cnc(Cl)c(NS(C)(=O)=O)c2)cc2c1OCCN(c1nc(CNCCF)nc(C)c1C(C)C)C2 |
| ≤ 100 nM | Cc1cc(-c2cnc3sc(N)nc3c2)cc2c1OCCN(c1nc(N)ncc1C(C)C)C2 |
| ≤ 100 nM | Cc1cc(-c2cnc3sc(N)nc3c2)cc2c1OCCN(c1nc(N)nc(C)c1CC1CC1)C2 |
| ≤ 100 nM | Cc1cc(-c2cnc3sc(N)nc3c2)cc2c1OCCN(c1nc(N)c(C#N)cc1C#N)C2 |
| 100 to 500 nM | Cc1cnc(N2CCOc3c(C)cc(-c4cnc5sc(N)nc5c4)cc3C2)nc1N |
| ≤ 100 nM | Cc1cc(-c2cnc3sc(N)nc3c2)cc2c1OCCN(c1nc(C(O)C(F)(F)F)nc(C)c1C(C)C)C2 (stereo not drawn) |
| 100 to 500 nM | Cc1ncc(-c2cc(C)c3c(c2)CN(c2nc(N)nc(C)c2C(C)C)CCO3)s1 |
| ≤ 100 nM | Cc1cc(-c2ccnc(F)c2)cc2c1OCCN(c1nc(N)nc(C)c1C(C)C)C2 |
| ≤ 100 nM | Cc1cc(-c2cnc3sc(N)nc3c2)cc2c1OCCN(c1ncc(F)c(N)n1)C2 |
| 100 to 500 nM | Cc1cc(-c2cnc3sc(N)nc3c2)cc2c1OCCN(c1nccnc1C#N)C2 |
| ≤ 100 nM | Cc1cc(-c2cnc(N)c(S(N)(=O)=O)c2)cc2c1OCCN(c1nc(N)nc(C)c1C(C)C)C2 |
| ≤ 100 nM | Cc1cc(-c2cnc3sc(N)nc3c2)cc2c1OCCN(c1nc(CNCC(F)F)nc(C)c1C(C)C)C2 |
| ≤ 100 nM | CCN(Cc1nc(C)c(C(C)C)c(N2CCOc3c(C)cc(-c4cnc5nc[nH]c5c4)cc3C2)n1)CC(F)F |
| ≤ 100 nM | Cc1cc(-c2cnc3sc(N)nc3c2)cc2c1OCCN(c1ncnc3c1CC(C)(C)C=C3)C2 |
| ≤ 100 nM | Cc1cc(-c2cnc3sc(N)nc3c2)cc2c1OCCN(c1nc(CN3CCCC3)ncc1C(C)C)C2 |
| ≤ 100 nM | Cc1cc(-c2cnc3sc(N)nc3c2)cc2c1OCCN(c1nc(N)ccc1C#N)C2 |
| ≤ 100 nM | Cc1cc(-c2cnc3sc(N)nc3c2)cc2c1OCCN(c1nc(N3CC(O)C3)nc(C)c1C(C)C)C2 |
| ≤ 100 nM | Cc1nc2ncc(-c3cc(C)c4c(c3)CN(c3nc(CNCC(F)F)nc(C)c3C(C)C)CCO4)cc2[nH]1 |
| ≤ 100 nM | COCCc1c(C)ncnc1N1CCOc2c(C)cc(-c3cnc4sc(N)nc4c3)cc2C1 |
| ≤ 100 nM | Cc1nc2ccc(-c3cc(C)c4c(c3)CN(c3nc(CN(C)C)nc(C)c3C(C)C)CCO4)cc2[nH]1 |
| ≤ 100 nM | COCCOc1nc(C)c(C(C)C)c(N2CCOc3c(C)cc(-c4cnc5sc(N)nc5c4)cc3C2)n1 |
| ≤ 100 nM | COc1cc(-c2cnc3sc(N)nc3c2)cc2c1OCCN(c1nc(N)nc(C)c1C(C)C)C2 |

| IC50 | SMILES |
| --- | --- |
| ≤ 100 nM | Cc1cc(-c2cnc(Cl)c(NS(C)(=O)=O)c2)cc2c1OCCN(c1ncc(C(F)(F)F)c(N)n1)C2 |
| ≤ 100 nM | Cc1cc(-c2cnc3sc(N)nc3c2)cc2c1OCCN(c1nc(CN3CCC(F)(F)C3)nc(C)c1C(C)C)C2 |
| ≤ 100 nM | Cc1cc(-c2cnc3sc(N)nc3c2)cc2c1OCCN(c1nc(N)nc(C)c1-c1cccc(F)c1)C2 |
| 100 to 500 nM | CCn1cc(-c2cc(C)c3c(c2)CN(c2nc(N)nc(C)c2C(C)C)CCO3)cn1 |
| ≤ 100 nM | Cc1cc(-c2ccn[nH]2)cc2c1OCCN(c1nc(N)nc(C)c1C(C)C)C2 |
| ≤ 100 nM | Cc1cc(-c2cnc3sc(N)nc3c2)cc2c1OCCN(c1nc(CF)nc(C)c1C(C)C)C2 |
| ≤ 100 nM | CC#CCc1c(C)nc(C)nc1N1CCOc2c(C)cc(-c3cnc4sc(N)nc4c3)cc2C1 |
| ≤ 100 nM | Cc1cc(-c2cnc3sc(N)nc3c2)cc2c1OCCN(c1nc(CN(C)C)nc(Cl)c1C(C)C)C2 |
| ≤ 100 nM | CCc1nc(CN(C)C)nc(N2CCOc3c(C)cc(-c4cnc5sc(N)nc5c4)cc3C2)c1CC |
| ≤ 100 nM | Cc1cc(-c2cnc3sc(N)nc3c2)cc2c1OCCN(c1nc(CN(C)C)ncc1C(C)C)C2 |
| ≤ 100 nM | Cc1cc(-c2cnc3sc(N)nc3c2)cc2c1OCCN(c1nc([C@@H]3CC(F)(F)CN3)nc(C)c1C(C)C)C2 |
| ≤ 100 nM | Cc1cc(-c2nnc(N)s2)cc2c1OCCN(c1ncnc(C)c1C(C)C)C2 |
| ≤ 100 nM | Cc1cc(-c2cnc3sc(N)nc3c2)cc2c1OCCN(c1nc(CN3CCCC3)nc(C)c1C(C)C)C2 |
| ≤ 100 nM | CCN(CCF)Cc1nc(C)c(C(C)C)c(N2CCOc3c(C)cc(-c4cnc5sc(N)nc5c4)cc3C2)n1 |
| 100 to 500 nM | Cc1cc(-c2cnc3sc(N)nc3c2)cc2c1OCCN(c1ncc(C(N)=O)c(N)n1)C2 |
| ≤ 100 nM | CC(=O)c1c(C)ncnc1N1CCOc2c(C)cc(-c3cnc4sc(N)nc4c3)cc2C1 |
| ≤ 100 nM | Cc1cc(-c2cccnc2)cc2c1OCCN(c1nc(N)nc(C)c1C(C)C)C2 |
| ≤ 100 nM | Cc1cc(-c2nnc(N)s2)cc2c1OCCN(c1nc(N)nc(C)c1C)C2 |
| 100 to 500 nM | Cc1cc(-c2cnc3sc(N)nc3c2)cc2c1OCCN(c1nccc(N)n1)C2 |
| ≤ 100 nM | COc1cc(-c2cnc3sc(N)nc3c2)cc2c1OCCN(c1nc(CN(C)C)nc(C)c1C(C)C)C2 |
| ≤ 100 nM | Cc1nc(C)c(C(C)C)c(N2CCOc3c(C)cc(-c4cnc5sc(N)nc5c4)cc3C2)n1 |
| ≤ 100 nM | Cc1cc(-c2cnc3sc(N)nc3c2)cc2c1OCCN(c1nc(C(C)N)nc(C)c1C(C)C)C2 (stereo not drawn) |
